Results taken from PubChem BioAssay (NCI).
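Following 48 hours of exposure in 96-well plates, responses at five concentrations were used to interpolate endpoints linearly. TGI marks complete inhibition of growth.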

What was measured:
Test in all cases: NCI-60 cell line screen, 48 h
786-0 renal = system: 786-0 renal
BT-549 breast = system: BT-549 breast
CAKI-1 renal = system: CAKI-1 renal
EKVX NSCLC = system: EKVX NSCLC
HOP-92 NSCLC = system: HOP-92 NSCLC
K-562 leukemia = system: K-562 leukemia
MDA-MB-435 = system: MDA-MB-435
MOLT-4 leukemia = system: MOLT-4 leukemia
SF-268 CNS = system: SF-268 CNS
SNB-19 CNS = system: SNB-19 CNS
U251 CNS = system: U251 CNS

Row | Compound | TGI (786-0 renal) [µM] | TGI (BT-549 breast) [µM] | TGI (CAKI-1 renal) [µM] | TGI (EKVX NSCLC) [µM] | TGI (HOP-92 NSCLC) [µM] | TGI (K-562 leukemia) [µM] | TGI (MDA-MB-435) [µM] | TGI (MOLT-4 leukemia) [µM] | TGI (SF-268 CNS) [µM] | TGI (SNB-19 CNS) [µM] | TGI (U251 CNS) [µM]
1 | CCOC(=O)C(NC(=O)c1cccc(Cl)c1)(Nc1cccc(C)c1)C(F)(F)F (centres undefined) | 47 | 26.1 | 47.5 | 63.1 | 29 | > 100 | 43.8 | 67.8 | 58.9 | > 100 | 79.3
2 | C[As+](C)(c1ccc(Br)c([N+](=O)[O-])c1)c1ccc(Br)c([N+](=O)[O-])c1.O=[N+]([O-])O | > 100 | > 100 | > 100 | > 100 | > 100 | > 100 | > 100 | > 100 | > 100 | > 100 | > 100
3 | c1ccc2c(c1)cc1ccc3cccc4ccc2c1c34 | > 100 | > 100 | > 100 | > 100 | > 100 | > 100 | > 100 | > 100 | > 100 | > 100 | > 100
4 | COc1ccc2c(c1OC)C(=O)N1C2=Cc2c(cc3c(c2OC)OCO3)CC1N(C)C (centres undefined) | > 100 | > 100 | > 100 | > 100 | > 100 | > 100 | > 100 | > 100 | > 100 | > 100 | > 100
5 | CC(C)(C)/C(O)=C\c1nc2cc(F)c(F)cc2[nH]c1=O | > 100 | > 100 | > 100 | > 100 | > 100 | > 100 | > 100 | > 100 | > 100 | > 100 | > 100
6 | CSc1nc(=O)c2nc(-c3cccs3)c(-c3cccs3)nc2n1C | > 100 | > 100 | > 100 | > 100 | 83.5 | > 100 | > 100 | > 100 | > 100 | > 100 | > 100
7 | O=C(Nc1nn(C(=O)c2cccnc2)c(=O)s1)c1ccc(Cl)cc1 | > 100 | > 100 | > 100 | > 100 | > 100 | > 100 | > 100 | > 100 | 40.4 | > 100 | > 100
8 | O=C1C=CC(=O)c2c(O)c(N3CCC[C@@H]3CO)c(Cl)c(O)c21 | 3.17 | 3.7 | 2.94 | 3.55 | 3.04 | 2.22 | 3.78 | 1.14 | 1.74 | 3.09 | 3.46
9 | CN1c2ccccc2C2=C(c3ccccc3)CC[C@@H](C(=O)N3C4CC5CC[C@@]4(CS3(=O)=O)C5(C)C)[C@@H]21 (some centres undefined) | > 100 | > 100 | > 100 | > 100 | > 100 | > 100 | > 100 | > 100 | > 100 | > 100 | > 100
10 | CC1=C(C(=O)OCCO[N+](=O)[O-])C(c2ccccc2[N+](=O)[O-])C(C(=O)OC(C)C)=C(C)N1 (centres undefined) | 41.4 | 30.4 | 59.7 | 53 | 31.4 | > 100 | 28.5 | > 100 | 47.1 | 39.6 | 30
11 | N#CCCN(CCC#N)c1ccc(C(N=Nc2ccccc2)=Nc2ccc(F)cc2)cc1 | > 100 | > 100 | > 100 | > 100 | > 100 | > 100 | > 100 | > 100 | > 100 | > 100 | > 100
12 | Clc1ccc(/C(=C/c2ccccc2)Cn2ccnc2)cc1 | > 100 | 96.2 | > 100 | > 100 | 67.2 | > 100 | 67.7 | > 100 | > 100 | > 100 | > 100
13 | CCC1([N+](=O)[O-])CN(N=O)C1 | > 100 | > 100 | > 100 | > 100 | > 100 | > 100 | > 100 | > 100 | > 100 | > 100 | > 100
14 | Cc1nc2c(=O)n(-c3ccccc3)c(=O)n(-c3ccccc3)c2o1 | > 100 | > 100 | > 100 | > 100 | > 100 | > 100 | > 100 | > 100 | > 100 | > 100 | > 100
